Source: US5672712A, “Thiazoline derivatives” (Taisho Pharmaceutical Co., Ltd., priority 1994, dated 1997)
pIC50: −log10 of the molar value. ≈ marks a conversion by molar mass, not a printed value. Structures can show the parent of a compound that is named as a salt. One block for each compound: values may come before it.

How the values were obtained:
[1] = target: T1, fibrinogen receptor (GpIIb/IIIa) on blood platelet (Homo sapiens, UniProt P05106+P08514); assay: Human Blood Platelet Fibrinogen Binding Test (125I labeled human fibrinogen, ADP 10 μM); conditions: human platelet 125I-fibrinogen binding
T1 construct: fibrinogen-free blood platelet suspension; endogenous in cells; host or cells: human blood platelets (from citrated venous blood of a healthy donor, gel-filtered)
Protocol: Experiment 1 [Human Blood Platelet Fibrinogen Binding Test]
The test was carried out referring to the methods of G. A. Marguerie (J. Biol. Chem., vol. 254, pages. 5357-5363, 1979) and N. S. Nicholson (Thromb. Res., vol. 50, pages 567-578, 1991).
(§1) Citrated blood (the volume ratio of 3.13% sodium citrate solution and blood is 1:9) was collected from the cubital vein of a healthy human who had not received any drugs known to affect the function of blood platelet within 2 weeks prior to starting the test, and centrifuged at 120× g at room temperature for 15 minutes to give platelet rich plasma (PRP) as a supernatant.
To the above PRP was added one fifth volume of an ACD solution (citric acid/sodium citrate/dextrose), followed by centrifugation at 1200× g for 15 minutes. The precipitate was suspended in a Tyrode's solution ([…], 2 mM Mg^2+), followed by gel filtration using Sepharose 2B column to give a fibrinogen-free blood platelet suspension (1×10^9 /ml). The binding test was carried out by using the fibrinogen-free blood platelet suspension, the solutions of the compounds of Formula (I) in dimethyl sulfoxide which were each adjusted to the desired concentration by diluting with a physiological saline solution as test drugs, ADP (final concentration: 10 μM) and ^125 I labeled human fibrinogen, and then the binding inhibitory rate of the test drug was calculated.
N-(2-Carboxyethyl)-2-(4-amidinobenzoylimino)-3,4-dimethyl-3H-thiazoline-5-carboxamide hydrobromide (described in WO 94/02472; referred to as "Comparative drug" in the following experiments) was used as a comparative drug. The drug solution was prepared in the same manner as described above, and tested as described above.
The results are shown in Table 1 in which the compound numbers are the same as defined in the following examples and are also used in the following experiments.

[2] = Stability Test (pH 7 phosphate buffer, 80° C.); type: physicochemical; conditions: 20 mg in 1000 ml; for remaining at 4 h: After 4 hours; for remaining at 4 h / remaining at 8 h / remaining at 24 h: read-out: Remaining rate of Test drug; for remaining at 8 h: After 8 hours; for remaining at 24 h: After 24 hours; for Remaining rate of Test drug: Immediately after
Protocol: Experiment 4 [Stability Test]
Stability test was carried out referring to the method of A. K. Amirjahed et al [J. Pharm. Sci., vol. 66, page 785 (1977)].
20 mg of Compound 8 obtained in the following example and 20 mg of Comparative drug, each weighed accurately, were each dissolved in 0.1N phosphate buffer (a buffer of a suitable amount of 0.1M potassium dihydrogenphosphate mixed with a suitable amount of 0.1M disodium hydrogenphosphate to adjust to pH 7) to make exactly 1000 ml to give standard solutions, respectively. The solution was dispensed into ampules, and they were stored at 80° C. for 4 hours, 8 hours and 24 hours to prepare test solutions.
20 μl of the test solution and 20 μl of the standard solution were each quantified by high performance liquid chromatography method under the following procedure conditions, and the peak areas of Compound 8 and Comparative drug at the storage times were determined, and the remaining rate was calculated by using the following formula, and the results are shown in Table 4.
Detection instrument: Ultraviolet spectrophotometer (Detection wave length: 247 nm)
(§2) Column: ODS column 4.6.phi.×150 mm (TSK Gel ODS 80TM)
Column temperature: A definite temperature in the vicinity of 50° C.
[Compound 8] 1 ml of phosphoric acid and 5 g of sodium dodecylsulfate (SDS) are added to 1000 ml of a mixture of water and acetonitrile (65:35).
[Comparative drug] 1 ml of phosphoric acid and 3 g of sodium dodecylsulfate (SDS) are added to 1000 ml of a mixture of water and acetonitrile (60:40).
Formula: Remaining rate (%)= [formula]

[3] = tested on: blood platelet aggregation; assay: Human in vitro Blood Platelet Aggregation Inhibition Test (ADP-induced, PRP); type: cell-based; conditions: ADP 7 μM, 37° C., 50% inhibition of maximum aggregation
Protocol: Experiment 2 [Human in vitro Blood Platelet Aggregation Inhibition Test]
as §1, with “supernatant. The remaining precipitate was further centrifuged at 1500× g for 10 minutes to give platelet poor plasma (PPP) as a supernatant. The blood platelet counts of PRP were adjusted to 50~60×10^4 /μl by diluting with PPP.” for “supernatant.”
Blood platelet aggregation was monitored according to the method of Born G. V. R., [Nature, vol. 194, page 927 (1962)] using adenosine diphosphate (produced by Sigma Co.; hereinafter referred to as "ADP") as an aggregation-inducing substance. That is, a solution of the compound of Formula (I) as a test drug in dimethyl sulfoxide was adjusted to the desired concentration with a physiological saline solution. 25 μl of the solution was added to 250 μl of PRP and incubated at 37° C. for 3 minutes, and 25 μl of ADP (final concentration: 7 μM) was added thereto. […]

[4] = Solubility Test (0.1M phosphate buffer, pH 7); type: physicochemical; conditions: aqueous buffer, 0.1M phosphate buffer pH 7, 25° C.
Protocol: Experiment 3 [Solubility Test]
Solubility test was carried out referring to the method of S. Miyazaki et al. [Chem. Pharm. Bull., vol. 23, page 1197 (1975)].
9.511 g of disodium hydrogenphosphate weighed accurately was dissolved in 800 ml of water. The solution was adjusted to pH 7.0 by adding sodium dihydrogenphosphate, and the total volume of the solution was made exactly 1000 ml to give a 0.1M phosphate buffer (pH 7). To 1.0 ml of the buffer solution measured exactly was added an excess amount for the solubility limit of the test drug. The suspension was treated by supersonic waves for 5 minutes and stirred on a water bath at 25° C. for 24 hours. After removal of the insoluble substance by using a membrane filter (0.22 μm), the filtrate was appropriately diluted to give a test solution. Separately, 1 mg of the test drug weighed accurately was dissolved in the eluate to make exactly 100 ml to give a standard solution. The test solution and the standard solution were quantified by high performance liquid chromatography method under the following procedure conditions, and the solubility of the test drug was calculated.
Detection instrument: Ultraviolet spectrophotometer (Detection wave length: 246 nm)
as §2
Column temperature: A definite temperature in the vicinity of 50° C. […]

T1 sequence (P08514 32-887 limits assumed): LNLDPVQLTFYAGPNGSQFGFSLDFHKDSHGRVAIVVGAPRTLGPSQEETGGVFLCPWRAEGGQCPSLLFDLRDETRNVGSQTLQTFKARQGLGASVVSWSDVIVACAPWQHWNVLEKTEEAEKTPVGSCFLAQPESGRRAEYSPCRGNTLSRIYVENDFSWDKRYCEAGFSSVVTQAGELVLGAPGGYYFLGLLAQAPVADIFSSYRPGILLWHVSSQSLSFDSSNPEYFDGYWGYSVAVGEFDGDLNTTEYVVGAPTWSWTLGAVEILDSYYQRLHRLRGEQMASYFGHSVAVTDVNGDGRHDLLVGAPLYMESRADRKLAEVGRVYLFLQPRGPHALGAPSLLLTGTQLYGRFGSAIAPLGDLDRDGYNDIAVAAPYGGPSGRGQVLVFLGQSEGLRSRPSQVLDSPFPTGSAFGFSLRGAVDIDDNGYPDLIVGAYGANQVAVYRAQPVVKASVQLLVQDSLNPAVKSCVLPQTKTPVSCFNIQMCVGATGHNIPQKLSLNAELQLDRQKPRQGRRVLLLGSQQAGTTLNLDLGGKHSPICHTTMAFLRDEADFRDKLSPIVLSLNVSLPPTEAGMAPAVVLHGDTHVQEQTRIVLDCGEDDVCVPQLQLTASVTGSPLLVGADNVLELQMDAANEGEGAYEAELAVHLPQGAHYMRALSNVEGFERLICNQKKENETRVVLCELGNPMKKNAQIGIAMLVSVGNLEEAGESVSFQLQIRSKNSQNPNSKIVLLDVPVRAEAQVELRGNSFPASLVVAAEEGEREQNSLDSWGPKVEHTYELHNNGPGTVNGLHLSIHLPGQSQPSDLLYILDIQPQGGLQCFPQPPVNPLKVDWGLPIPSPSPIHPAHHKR
T1 sequence (P08514 891-1039 partner limits assumed): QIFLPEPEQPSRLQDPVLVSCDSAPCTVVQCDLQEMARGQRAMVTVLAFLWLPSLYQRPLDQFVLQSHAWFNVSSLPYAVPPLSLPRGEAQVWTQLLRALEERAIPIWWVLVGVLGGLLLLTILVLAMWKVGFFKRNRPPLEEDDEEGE
T1 sequence (P05106 27-788): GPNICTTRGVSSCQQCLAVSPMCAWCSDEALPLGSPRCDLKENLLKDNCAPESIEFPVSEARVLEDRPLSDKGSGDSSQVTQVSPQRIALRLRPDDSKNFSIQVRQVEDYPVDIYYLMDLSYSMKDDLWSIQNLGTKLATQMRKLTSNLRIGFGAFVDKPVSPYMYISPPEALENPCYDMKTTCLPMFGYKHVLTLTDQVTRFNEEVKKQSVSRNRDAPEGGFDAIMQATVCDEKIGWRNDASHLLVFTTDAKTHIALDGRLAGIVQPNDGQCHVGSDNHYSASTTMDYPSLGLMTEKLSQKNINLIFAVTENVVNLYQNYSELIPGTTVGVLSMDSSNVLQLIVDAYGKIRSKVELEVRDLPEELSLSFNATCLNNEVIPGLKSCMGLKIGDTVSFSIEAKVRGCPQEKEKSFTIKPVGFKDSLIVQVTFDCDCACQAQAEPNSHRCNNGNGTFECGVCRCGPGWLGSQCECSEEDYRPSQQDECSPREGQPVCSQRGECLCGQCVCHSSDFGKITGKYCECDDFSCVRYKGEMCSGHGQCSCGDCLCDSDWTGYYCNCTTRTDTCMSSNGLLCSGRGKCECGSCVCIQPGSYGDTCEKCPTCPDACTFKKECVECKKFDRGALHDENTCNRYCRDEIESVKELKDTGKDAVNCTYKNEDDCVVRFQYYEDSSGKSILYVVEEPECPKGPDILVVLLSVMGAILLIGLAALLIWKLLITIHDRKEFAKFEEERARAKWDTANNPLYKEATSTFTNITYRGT

Compound: Cc1c(C(=O)NCCC(=O)O)sc(=NC(=O)c2ccc(C(=N)NCCCC(=O)OC3CCCCC3)cc2)n1C1CCC1 [Compound 56, N-(2-carboxyethyl)-2-{4-[N-(3-cyclohexyloxycarbonylpropyl)amidino]benzoylimino}-3-cyclobutyl-4-methyl-3H-thiazoline-5-carboxamide]
- pIC50 [1]: 7.95

Compound: Cc1c(C(=O)NCCC(=O)O)sc(=NC(=O)c2ccc(C(=N)NCCCC(=O)OC3CCCCC3)cc2)n1C(C)C [Compound 17, N-(2-carboxyethyl)-2-{4-[N-(3-cyclohexyloxycarbonylpropyl)amidino]benzoylimino}-3-isopropyl-4-methyl-3H-thiazoline-5-carboxamide]
- pIC50 [1]: 7.90

Compound: Cc1c(C(=O)NCCC(=O)O)sc(=NC(=O)c2ccc(C(=N)NCCC(=O)O)cc2)n1C [Compound 9, N-(2-carboxyethyl)-2-{4-[N-(2-carboxyethyl)amidino]-benzoylimino}-3,4-dimethyl-3H-thiazoline-5-carboxamide]
- pIC50 [1]: 7.78

Compound: Cc1c(C(=O)NCCC(=O)O)sc(=NC(=O)c2ccc(C(=N)N)cc2)n1C [Comparative drug, N-(2-Carboxyethyl)-2-(4-amidinobenzoylimino)-3,4-dimethyl-3H-thiazoline-5-carboxamide hydrobromide, reference compound]
- remaining at 4 h [2]: 82.2%
- remaining at 8 h [2]: 68.4%
- remaining at 24 h [2]: 32.3%
- Remaining rate of Test drug [2]: 100%
- pIC50 [1]: 8.30
- pIC50 [3]: 7.77
- solubility at 24 h [4]: 0.03 mg/mL

Compound: Cc1c(C(=O)NCCC(=O)O)sc(=NC(=O)c2ccc(C(=N)NCCCCCC(=O)Nc3ccccc3)cc2)n1C1CC1 [Compound 51, N-(2-carboxyethyl)-2-{4-[N-(5-phenylaminocarbonylpentyl)amidino]benzoylimino}-3-cyclopropyl-4-methyl-3H-thiazoline-5-carboxamide]
- pIC50 [1]: 8.07

Compound: Cc1c(C(=O)NCCC(=O)O)sc(=NC(=O)c2ccc(C(=N)NCCCC(=O)O)cc2)n1C [Compound 8, N-(2-carboxyethyl)-2-{4-[N-(3-carboxypropyl)amidino]benzoylimino}-3,4-dimethyl-3H-thiazoline-5-carboxamide]
- remaining at 4 h [2]: 97.8%
- remaining at 8 h [2]: 95.7%
- remaining at 24 h [2]: 88.9%
- Remaining rate of Test drug [2]: 100%
- pIC50 [1]: 7.59
- pIC50 [3]: 7.41
- solubility at 24 h [4]: 20 mg/mL (≈ 42.1 mM)

Next, values leading:

- pIC50 [1]: 8.09
Compound: Cc1c(C(=O)NCCC(=O)O)sc(=NC(=O)c2ccc(C(=N)NCCCC(=O)OC3CCCCC3)cc2)n1C [Compound 11, N-(2-carboxyethyl)-2-{4-[N-(3-cyclohexyloxycarbonylpropyl)amidino]benzoylimino}-3,4-dimethyl-3H-thiazoline-5-carboxamide]

- pIC50 [1]: 8.14
Compound: Cc1c(C(=O)NCCC(=O)O)sc(=NC(=O)c2ccc(C(=N)NCCCC(=O)OC3CCCCC3)cc2)n1C1CC1 [Compound 49, N-(2-carboxyethyl)-2-{4-[N-(3-cyclohexyloxycarbonylpropyl)amidino]benzoylimino}-3-cyclopropyl-4-methyl-3H-thiazoline-5-carboxamide]

- pIC50 [1]: 8.33
Compound: Cc1c(C(=O)NCCC(=O)O)sc(=NC(=O)c2ccc(C(=N)NCCCC(=O)NC3CCCCC3)cc2)n1C [Compound 12, N-(2-carboxyethyl)-2-{4-[N-(3-cyclohexylaminocarbonylpropyl)amidino]benzoylimino}-3,4-dimethyl-3H-thiazoline-5-carboxamide]
